Measurements from US9005937B2, “Dual cofactor specific ribitol dehydrogenase and use thereof” (Konkuk University Industrial Cooperation Corp., priority 2011, dated 2015).
Read-outs that look alike come from different tables or passages of the source.

Key:
[1] = biological target: T1, Zymomonas mobilis ribitol dehydrogenase (SEQ ID NO: 4) variant S156T (Zymomonas mobilis, UniProt Q5NQS1, S229T); assay: Dynamical parameters to coenzyme, variant S156T; format: biochemical
T1 sequence (Q5NQS1 74-338 S229T): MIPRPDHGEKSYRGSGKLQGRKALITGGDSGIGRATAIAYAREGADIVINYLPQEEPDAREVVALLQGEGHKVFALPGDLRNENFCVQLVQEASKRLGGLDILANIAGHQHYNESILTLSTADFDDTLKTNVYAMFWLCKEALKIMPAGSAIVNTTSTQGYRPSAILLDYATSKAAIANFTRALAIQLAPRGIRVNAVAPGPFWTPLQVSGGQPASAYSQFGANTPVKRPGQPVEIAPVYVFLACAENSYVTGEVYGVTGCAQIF
Source text: (§1) There were no differences between the expression amount of various amino acid variants of Ser 156 and the expression amount of wide-type. The dynamical parameter of each of variants was confirmed using the above variants.

[2] = biological target: T2, Zymomonas mobilis ribitol dehydrogenase (SEQ ID NO: 4) variant S156G (Zymomonas mobilis, UniProt Q5NQS1, S229G); assay: Dynamical parameters to coenzyme, variant S156G; format: biochemical
T2 sequence (Q5NQS1 74-338 S229G): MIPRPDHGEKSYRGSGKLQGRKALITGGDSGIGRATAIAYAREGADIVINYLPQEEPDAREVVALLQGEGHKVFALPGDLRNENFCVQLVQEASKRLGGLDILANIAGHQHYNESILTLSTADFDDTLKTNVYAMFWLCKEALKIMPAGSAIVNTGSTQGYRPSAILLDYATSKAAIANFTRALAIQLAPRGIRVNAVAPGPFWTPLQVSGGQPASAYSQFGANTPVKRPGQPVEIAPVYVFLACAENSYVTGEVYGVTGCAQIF
Source text: as §1

[3] = biological target: T3, Zymomonas mobilis ribitol dehydrogenase (SEQ ID NO: 4) variant S156W (Zymomonas mobilis, UniProt Q5NQS1, S229W); assay: Dynamical parameters to coenzyme, variant S156W; format: biochemical
T3 sequence (Q5NQS1 74-338 S229W): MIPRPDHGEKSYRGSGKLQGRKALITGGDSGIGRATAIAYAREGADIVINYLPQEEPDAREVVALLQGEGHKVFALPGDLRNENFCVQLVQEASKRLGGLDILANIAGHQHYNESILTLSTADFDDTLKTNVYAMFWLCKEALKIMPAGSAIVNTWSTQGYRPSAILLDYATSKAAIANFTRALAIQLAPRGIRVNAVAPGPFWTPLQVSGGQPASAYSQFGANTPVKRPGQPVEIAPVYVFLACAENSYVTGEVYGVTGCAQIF
Source text: as §1

[4] = biological target: T4, Zymomonas mobilis ribitol dehydrogenase (SEQ ID NO: 4) variant S156E (Zymomonas mobilis, UniProt Q5NQS1, S229E); assay: Dynamical parameters to coenzyme, variant S156E; format: biochemical
T4 sequence (Q5NQS1 74-338 S229E): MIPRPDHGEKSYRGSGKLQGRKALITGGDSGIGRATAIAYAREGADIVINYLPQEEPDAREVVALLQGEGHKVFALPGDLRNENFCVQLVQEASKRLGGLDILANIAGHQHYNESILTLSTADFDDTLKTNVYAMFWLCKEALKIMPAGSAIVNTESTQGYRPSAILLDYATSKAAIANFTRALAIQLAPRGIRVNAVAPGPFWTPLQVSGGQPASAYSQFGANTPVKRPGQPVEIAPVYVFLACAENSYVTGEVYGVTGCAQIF
Source text: as §1

[5] = biological target: T5, Zymomonas mobilis ribitol dehydrogenase (SEQ ID NO: 4) variant S156Y (Zymomonas mobilis, UniProt Q5NQS1, S229Y); assay: Dynamical parameters to coenzyme, variant S156Y; format: biochemical
T5 sequence (Q5NQS1 74-338 S229Y): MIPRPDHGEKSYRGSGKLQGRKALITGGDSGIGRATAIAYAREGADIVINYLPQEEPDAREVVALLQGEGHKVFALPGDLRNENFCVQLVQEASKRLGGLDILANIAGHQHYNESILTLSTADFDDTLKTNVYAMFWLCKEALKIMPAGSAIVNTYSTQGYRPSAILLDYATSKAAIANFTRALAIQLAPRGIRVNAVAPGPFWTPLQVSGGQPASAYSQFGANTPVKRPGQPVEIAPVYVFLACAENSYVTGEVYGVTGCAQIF
Source text: as §1

[6] = biological target: T6, Zymomonas mobilis ribitol dehydrogenase, wild-type, SEQ ID NO: 4 (Zymomonas mobilis, UniProt Q5NQS1); assay: Dynamical (kinetic) parameters of ribitol dehydrogenase to coenzyme NAD(H)/NADP(H), wild-type; format: biochemical
T6 sequence (Q5NQS1 74-338): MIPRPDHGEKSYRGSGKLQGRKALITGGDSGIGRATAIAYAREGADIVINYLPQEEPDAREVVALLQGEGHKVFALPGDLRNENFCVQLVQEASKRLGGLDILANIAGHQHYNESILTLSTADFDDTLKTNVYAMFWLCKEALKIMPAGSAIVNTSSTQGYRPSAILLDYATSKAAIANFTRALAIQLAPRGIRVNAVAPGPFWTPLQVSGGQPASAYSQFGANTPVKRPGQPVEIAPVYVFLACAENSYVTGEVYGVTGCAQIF
Experimental: (§2) The optimum pH on dehydrogenation activity of the ribitol dehydrogenase was measured using 20 mM of Tris-HCl buffer. The enzyme activity was determined by monitoring the change per minute in absorbance at 340 nm while the sample was reacted in the presence of NAD(H) and ribitol.
Then, dynamical parameters were measured through a nonlinear regression analysis.

[7] = biological target: T7, Zymomonas mobilis ribitol dehydrogenase (SEQ ID NO: 4) variant S156C (Zymomonas mobilis, UniProt Q5NQS1, S229C); assay: Dynamical parameters to coenzyme, variant S156C; format: biochemical
T7 sequence (Q5NQS1 74-338 S229C): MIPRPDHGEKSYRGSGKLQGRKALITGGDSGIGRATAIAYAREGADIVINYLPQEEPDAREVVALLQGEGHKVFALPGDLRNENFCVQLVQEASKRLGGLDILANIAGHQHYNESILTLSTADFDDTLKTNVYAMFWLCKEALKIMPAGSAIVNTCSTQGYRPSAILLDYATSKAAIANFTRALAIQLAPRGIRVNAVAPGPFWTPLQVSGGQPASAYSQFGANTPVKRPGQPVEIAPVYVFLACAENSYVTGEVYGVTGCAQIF
Source text: as §1

[8] = biological target: T8, Zymomonas mobilis ribitol dehydrogenase (SEQ ID NO: 4) variant S156A (Zymomonas mobilis, UniProt Q5NQS1, S229A); assay: Dynamical parameters to coenzyme, variant S156A; format: biochemical
T8 sequence (Q5NQS1 74-338 S229A): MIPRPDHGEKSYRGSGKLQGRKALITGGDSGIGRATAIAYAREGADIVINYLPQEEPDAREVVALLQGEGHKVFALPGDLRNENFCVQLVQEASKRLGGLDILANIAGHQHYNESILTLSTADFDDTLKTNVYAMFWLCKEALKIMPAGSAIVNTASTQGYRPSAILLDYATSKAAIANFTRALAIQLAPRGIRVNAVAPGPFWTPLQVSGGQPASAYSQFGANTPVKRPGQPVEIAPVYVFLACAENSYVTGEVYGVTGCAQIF
Source text: as §1

[9] = biological target: T9, Zymomonas mobilis ribitol dehydrogenase (SEQ ID NO: 4) variant S156D, SEQ ID NO: 5 (Zymomonas mobilis, UniProt Q5NQS1, N321D/S229D); assay: Dynamical parameters to coenzyme, variant S156D; format: biochemical
T9 sequence (Q5NQS1 74-338 S229D/N321D): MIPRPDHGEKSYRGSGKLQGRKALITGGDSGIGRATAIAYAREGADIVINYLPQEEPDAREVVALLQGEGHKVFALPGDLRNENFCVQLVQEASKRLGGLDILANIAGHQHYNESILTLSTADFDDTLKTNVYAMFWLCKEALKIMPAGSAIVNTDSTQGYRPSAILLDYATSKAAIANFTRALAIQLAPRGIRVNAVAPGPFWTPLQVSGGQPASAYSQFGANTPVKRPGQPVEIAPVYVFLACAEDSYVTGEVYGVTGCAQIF
Source text: In addition, the present invention provides a ribitol dehydrogenase mutant selected from the group consisting of a) a mutant, in which serine, an amino acid at position 156 of the ribitol dehydrogenase having an amino acid sequence as set forth in SEQ ID NO: 4 is substituted with aspartic acid; and b) a mutant, in which tyrosine, an amino acid at position 51 of the ribitol dehydrogenase having an amino acid sequence as set forth in SEQ ID NO: 4 is substituted with aspartic acid and serine, an amino acid at position 156 is substituted with alanine.
The mutants have preferably amino acid sequences as set forth in SEQ ID NOS: 5 and 6, respectively, but the present invention is not limited thereto.
as §1

[10] = coenzyme NAD(H)
Experimental: as §2

[11] = Optimum pH on dehydrogenation activity of the ribitol dehydrogenase; format: biochemical; conditions: 20 mM Tris-HCl buffer; NAD(H) and ribitol; absorbance at 340 nm
Source text: Physicochemical properties of the ribitol dehydrogenase isolated in Example 4 were investigated using ribitol as a substrate.

[12] = Production of L-ribulose from ribitol with cell bodies of recombinant strains expressing the variants; format: cell-based, E. coli; conditions: whole cells; 20 mM Tris-HCl buffer pH 9.5; 25° C.; 6 hours; HPLC
Experimental: The following experiments were performed in order to produce L-ribulose using a ribitol dehydrogenase variant having double coenzyme specificity. The variants prepared by using the method of Example 5-3 were expressed using the method of Example 2; the cell bodies were only collected by centrifuging (8000×g for 10 minutes) the recombinant strain culture solution; and then the cell bodies were washed with distilled water twice. The final Cell OD was measured and the same amount of cells was used for a production experiment. The ribitol and each of recombinant enzyme variants were subjected to an enzyme reaction in 20 mM of Tris-HCl buffer (pH 9.5) at a temperature of 25° C. for 6 hours.

[13] = coenzyme NADP(H)
Experimental: as §2

[14] = substrate: NC(=O)c1ccc[n+]([C@@H]2O[C@H](COP(=O)(O)OP(=O)(O)OC[C@H]3O[C@@H](n4cnc5c(N)ncnc54)[C@H](OP(=O)(O)O)[C@@H]3O)[C@@H](O)[C@H]2O)c1; assay: purified protein, by the assay type; conditions: ribitol, wild-type, pH 9.0
[15] = read-out: Km, NAD, NAD 0.01 to 3 mM
[16] = other: NADP(H) 0.1 to 2 mM, 20 mM Tris-HCl, 340 nm

NC(=O)c1ccc[n+]([C@@H]2O[C@H](COP(=O)(O)OP(=O)(O)OC[C@H]3O[C@@H](n4cnc5c(N)ncnc54)[C@H](O)[C@@H]3O)[C@@H](O)[C@H]2O)c1 [NAD^+, nicotinamide adenine dinucleotide]
kcat (NAD^+) ([1]; NAD 0.01 to 3 mM): 2.85 ± 0.10 s⁻¹ | Km [1, 15]: 210 ± 60 µM | kcat (NAD^+) ([2]; NAD 0.01 to 3 mM): 1.04 ± 0.02 s⁻¹ | Km [2, 15]: 140 ± 10 µM | kcat (NAD^+) ([3]; NAD 0.01 to 3 mM): 2.62 ± 0.11 s⁻¹ | Km [3, 15]: 160 ± 20 µM | kcat (NAD^+) ([4]; NAD 0.01 to 3 mM): 2.06 ± 0.07 s⁻¹ | Km [4, 15]: 50 ± 3 µM | kcat (NAD^+) ([5]; NAD 0.01 to 3 mM): 1.60 ± 0.13 s⁻¹ | Km [5, 15]: 150 ± 10 µM | kcat (NAD^+) ([6]; NAD 0.01 to 3 mM): 4.83 ± 0.51 s⁻¹ | kcat (NAD(H)) ([6]; NAD(H) 0.1 to 2 mM, 20 mM Tris-HCl, 340 nm): about 4.84 s^−1 | Km [6, 15]: 180 ± 20 µM | Km ([6]; read-out: Km, NAD, NAD(H) 0.1 to 2 mM, 20 mM Tris-HCl, 340 nm): ~180 µM | kcat (NAD^+) ([7]; NAD 0.01 to 3 mM): 2.00 ± 0.09 s⁻¹ | Km [7, 15]: 100 ± 20 µM | kcat (NAD^+) ([8]; NAD 0.01 to 3 mM): 1.93 ± 0.16 s⁻¹ | Km [8, 15]: 190 ± 20 µM | kcat (NAD^+) ([9]; NAD 0.01 to 3 mM): 1.79 ± 0.01 s⁻¹ | Km [9, 15]: 20 ± 2 µM

B1: Zymomonas mobilis ribitol dehydrogenase, wild-type, SEQ ID NO: 4 (Zymomonas mobilis subsp. mobilis ZM4 = ATCC 31821) (protein)
chain: MIPRPDHGEKSYRGSGKLQGRKALITGGDSGIGRATAIAYAREGADIVINYLPQEEPDAREVVALLQGEGHKVFALPGDLRNENFCVQLVQEASKRLGGLDILANIAGHQHYNESILTLSTADFDDTLKTNVYAMFWLCKEALKIMPAGSAIVNTSSTQGYRPSAILLDYATSKAAIANFTRALAIQLAPRGIRVNAVAPGPFWTPLQVSGGQPASAYSQFGANTPVKRPGQPVEIAPVYVFLACAENSYVTGEVYGVTGCAQIF
Relative activity (%), NAD(H) [10]: 100% | optimum pH [11]: 9.5 | L-ribulose produced, concentration [12]: 0.80 g/L | Relative activity (%), NADP(H) [13]: 42.9% | Km ([14]; other: NADP 0.01 to 3 mM): 260 ± 20 µM | kcat ([14]; other: NADP 0.01 to 3 mM): 2.79 s⁻¹ | kcat/Km ([14]; other: NADP 0.01 to 3 mM): 10800 M⁻¹ s⁻¹ | Km [14, 16]: 260 µM | kcat [14, 16]: 2.79 s⁻¹
